# From patent US10231967B2, “Compounds and their use as BACE inhibitors” (ASTRAZENECA AB, priority 2010, dated 2019)
# Test system: sAPPβ release in SH-SY5Y cells
# Assay: sAPPβ release assay
# Type: cell-based
# Conditions: Homo sapiens, SH-SY5Y, 17 h, compounds incubated 17 h, MSD detection
# Method: Thaw cells and seed at a conc. of around 10000 cells/well in DMEM/F-12 with Glutamax, 10% FCS and 1% non-essential amino acids to a 384-well tissue culture treated plate, 100 μL cell susp/well. […] The cell medium was removed, followed by addition of 30 μL compound diluted in DMEM/F-12 with Glutamax, 10% FCS, 1% non-essential amino acids and 1% PeSt to a final conc. of 1% DMSO. The compounds were incubated with the cells for 17 h (overnight) at 37° C., 5% CO2. Meso Scale Discovery (MSD) plates were used for the detection of sAPPβ release. MSD sAPPβ plates were blocked in 1% BSA in Tris wash buffer (40 μL/well) for 1 h on shake at r.t. and washed 1 time in Tris wash buffer (40 μL/well). 20 μL of medium was transferred to the pre-blocked and washed MSD sAPPβ microplates, and the cell plates were further used in an ATP assay to measure cytotoxicity. The MSD plates were incubated with shaking at r.t. for 2 h and the media discarded. 10 μL detection antibody was added (1 nM) per well followed by incubation with shaking at r.t. for 2 h and then discarded. 40 μL Read Buffer was added per well and the plates were read in a SECTOR Imager.
row,SMILES,IC50 [nM]
1,"CO[C@H]1CC[C@]2(CC1)Cc1ccc(-c3cnc(C)c(Cl)c3)cc1[C@@]21N=C(C)C(N)=N1 [Example 61, (1r,1′R,4R)-6′-(5-Chloro-6-methylpyridin-3-yl)-4-methoxy-5″-methyl-3′H-dispiro[cyclohexane-1,2′-indene-1′,2″-imidazol]-4″-amine]",3.1
2,"CO[C@H]1CC[C@]2(CC1)Cc1ccc(-c3cc(Cl)cnc3C)cc1C21N=C(C)C(N)=N1 (some centres unmarked) [Example 62, (1r,4r)-6′-(5-Chloro-2-methylpyridin-3-yl)-4-methoxy-5″-methyl-3′H-dispiro[cyclohexane-1,2′-indene-1′,2″-imidazol]-4″-amine]",8.6
3,"CCC1=NC2(N=C1N)c1cc(-c3cncc(Cl)c3)ccc1C[C@]21CC[C@@H](OC)CC1 (some centres unmarked) [Example 65, (1r,4r)-6′-(5-Chloropyridin-3-yl)-5-ethyl-4-methoxy-3′H-dispiro[cyclohexane-1,2′-indene-1′,2″-imidazol]-4″-amine]",3.4
4,"CC#Cc1cncc(-c2ccc3c(c2)C2(N=C(N)C(CC)=N2)[C@]2(CC[C@H](OC)CC2)C3)c1 (some centres unmarked) [Example 67, (1r,4r)-5″-Ethyl-4-methoxy-6′-[5-(prop-1-yn-1-yl)pyridin-3-yl]-3′H-dispiro[cyclohexane-1,2′-indene-1′,2″-imidazol]-4″-amine]",0.81
5,"CCC1=NC2(N=C1N)c1cc(-c3cccc(C#N)c3)ccc1C[C@]21CC[C@@H](OC)CC1 (some centres unmarked) [Example 70, 3-[(1r,4r)-4″-amino-5″-ethyl-4-methoxy-3′H-dispiro[cyclohexane-1,2′-indene-1′,2″-imidazol]-6′-yl]benzonitrile]",13
6,"COCc1cccc(-c2ccc3c(c2)C2(N=C(C)C(N)=N2)[C@]2(CC[C@H](OC)CC2)C3)c1 (some centres unmarked) [Example 80, (1r,4r)-4-Methoxy-6′-[3-(methoxymethyl)phenyl]-5″-methyl-3′H-dispiro[cyclohexane-1,2′-indene-1′,2″-imidazol]-4″-amine]",13
7,"COCc1cc(F)cc(-c2ccc3c(c2)C2(N=C(C)C(N)=N2)[C@]2(CC[C@H](OC)CC2)C3)c1 (some centres unmarked) [Example 81, (1r,4r)-6′-[3-Fluoro-5-(methoxymethyl)phenyl]-4-methoxy-5″-methyl-3′H-dispiro[cyclohexane-1,2′-indene-1′,2″-imidazol]-4″-amine]",20
8,"CO[C@H]1CC[C@]2(CC1)Cc1ccc(-c3cncc(COCC(F)(F)F)c3)cc1C21N=C(C)C(N)=N1 (some centres unmarked) [Example 82, (1r,4r)-4-Methoxy-5″-methyl-6′-{5-[(2,2,2-trifluoroethoxy)methyl]pyridin-3-yl}-3′H-dispiro[cyclohexane-1,2′-indene-1′,2″-imidazol]-4″-amine]",36
9,"CO[C@H]1CC[C@]2(CC1)Cc1ccc(-c3cncc(C(F)(F)F)c3)cc1[C@@]21N=C(C)C(N)=N1 [Example 84, (1r,1′R,4R)-4-Methoxy-5″-methyl-6′-[5-(trifluoromethyl)pyridin-3-yl]-3′H-dispiro[cyclohexane-1,2′-indene-1′,2″-imidazol]-4″-amine]",0.99
10,"COc1cc(-c2ccc3c(c2)[C@@]2(N=C(C)C(N)=N2)[C@]2(CC[C@H](OC)CC2)C3)cc(C#N)c1F [Example 87, 5-[(1r,1′R,4R)-4″-Amino-4-methoxy-5″-methyl-3′H-dispiro[cyclohexane-1,2′-indene-1′,2″-imidazol]-6′-yl]-2-fluoro-3-methoxybenzonitrile]",0.93
11,"CO[C@H]1CC[C@]2(CC1)Cc1ccc(-c3cc(F)cc(F)c3)cc1[C@@]21N=C(C)C(N)=N1 [Example 88, (1r,1′R,4R)-6′-(3,5-difluorophenyl)-4-methoxy-5″-methyl-3′H-dispiro[cyclohexane-1,2′-indene-1′,2″-imidazol]-4″-amine]",4.8
12,"COc1cccc(-c2ccc3c(c2)[C@@]2(N=C(C)C(N)=N2)[C@]2(CC[C@H](OC)CC2)C3)c1F [Example 89, (1r,1′R,4R)-6′-(2-Fluoro-3-methoxyphenyl)-4-methoxy-5″-methyl-3′H-dispiro[cyclohexane-1,2′-indene-1′,2″-imidazol]-4′″-amine]",1.7

# Other lines, results leading:
row,IC50 [nM],SMILES
1,2.1,"CO[C@H]1CC[C@]2(CC1)Cc1ccc(-c3cc(C)cc(C#N)c3)cc1C21N=C(C)C(N)=N1 (some centres unmarked) [Example 74, 3-[(1r,4r)-4″-Amino-4-methoxy-5″-methyl-3′H-dispiro[cyclohexane-1,2′-indene-1′,2″-imidazol]-6′-yl]-5-methylbenzonitrile]"
2,171,"CO[C@H]1CC[C@]2(CC1)Cc1ccc(C#N)cc1C21N=C(C)C(N)=N1 (some centres unmarked) [Example 79, (1r,4r)-4″-Amino-4-methoxy-5″-methyl-3′H-dispiro[cyclohexane-1,2′-indene-1′,2″-imidazole]-6′-carbonitrile]"
3,0.8,CO[C@H]1CC[C@]2(CC1)Cc1ccc(-c3cc(C#N)cc(C(F)(F)F)c3)cc1[C@@]21N=C(C)C(N)=N1 [Example 85]
4,0.56,"CO[C@H]1CC[C@]2(CC1)Cc1ccc(-c3cc(Br)cc(C#N)c3)cc1C21N=C(C)C(N)=N1 (some centres unmarked) [Example 93, 3-[(1r,4r)-4″-Amino-4-methoxy-5″-methyl-3′H-dispiro[cyclohexane-1,2′-indene-1′,2″-imidazol]-6′-yl]-5-bromobenzonitrile]"
5,3.6,"CCc1cc(C#N)cc(-c2ccc3c(c2)C2(N=C(C)C(N)=N2)[C@]2(CC[C@H](OC)CC2)C3)c1 (some centres unmarked) [Example 95, 3-[(1r,4r)-4″-Amino-4-methoxy-5″-methyl-3′H-dispiro[cyclohexane-1,2′-indene-1′,2″-imidazol]-6′-yl]-5-ethylbenzonitrile]"

# Same assay, conditions: Homo sapiens, compounds incubated 17 h, MSD detection
row,SMILES,IC50 [nM]
1,"CC#Cc1cncc(-c2ccc3c(c2)C2(N=C(C)C(N)=N2)[C@]2(CC[C@H](OC)CC2)C3)c1C (some centres unmarked) [Example 63, (1r,4r)-4-Methoxy-5″-methyl-6′-[4-methyl-5-(prop-1-yn-1-yl)pyridin-3-yl]-3′H-dispiro[cyclohexane-1,2′-indene-1′,2″-imidazol]-4″-amine]",29
2,"CCC1=NC2(N=C1N)c1cc(-c3cncc(C#N)c3)ccc1C[C@]21CC[C@@H](OC)CC1 (some centres unmarked) [Example 69, 5-[(1r,4r)-4″-Amino-5″-ethyl-4-methoxy-3′H-dispiro[cyclohexane-1,2′-indene-1′,2″-imidazol]-6′-yl]pyridine-3-carbonitrile]",10
3,"CC#Cc1cncc(-c2ccc3c(c2)[C@@]2(N=C(C)C(N)=N2)[C@]2(CC[C@H](O)CC2)C3)c1 [Example 73, (1r,1′R,4R)-4″-Amino-5″-methyl-6′-[5-(prop-1-yn-1-yl)pyridin-3-yl]-3′H-dispiro[cyclohexane-1,2′-indene-1′,2″-imidazol]-4-ol]",1
4,"CC1=NC2(N=C1N)c1cc(-c3cc(Cl)cc(C#N)c3)ccc1CC21CC1 (centres unmarked) [Example 78, 3-(4″-Amino-5″-methyl-3′H-dispiro[cyclopropane-1,2′-indene-1′,2″-imidazol]-6′-yl)-5-chlorobenzonitrile]",56
5,"CO[C@H]1CC[C@]2(CC1)Cc1ccc(-c3cncc(C)c3)cc1[C@@]21N=C(C)C(N)=N1 [Example 83, (1r,1′R,4R)-4-Methoxy-5″-methyl-6′-(5-methylpyridin-3-yl)-3′H-dispiro[cyclohexane-1,2′-indene-1′,2″-imidazol]-4″-amine]",2.9
6,"COc1ccc(F)c(-c2ccc3c(c2)[C@@]2(N=C(C)C(N)=N2)[C@]2(CC[C@H](OC)CC2)C3)c1 [Example 98, (1r,1′R,4R)-6′-(2-Fluoro-5-methoxyphenyl)-4-methoxy-5″-methyl-3′H-dispiro[cyclohexane-1,2′-indene-1′,2″-imidazol]-4′″-amine]",0.82
7,"CO[C@H]1CC[C@]2(CC1)Cc1ccc(-c3cc(F)ccc3F)cc1[C@@]21N=C(C)C(N)=N1 [Example 99, (1r,1′R,4R)-6′-(2,5-Difluorophenyl)-4-methoxy-5′-methyl-3′H-dispiro[cyclohexane-1,2′-indene-1′,2″-imidazol]-4″-amine]",5.7

# More lines, now with the values ahead:
row,IC50 [nM],SMILES
1,125,"CCC1=NC2(N=C1N)c1cc(Br)ccc1C[C@]21CC[C@@H](OC)CC1 (some centres unmarked) [Example 64, (1r,4r)-6′-Bromo-5″-ethyl-4-methoxy-3′H-dispiro[cyclohexane-1,2′-indene-1′,2″-imidazol]-4″-amine]"
2,1.1,"CO[C@H]1CC[C@]2(CC1)Cc1ccc(-c3cc(C#N)cc(C(F)F)c3)cc1[C@@]21N=C(C)C(N)=N1 [Example 86, 3-[(1r,1′R,4R)-4″-Amino-4-methoxy-5-methyl-3′H-dispiro[cyclohexane-1,2′-indene-1′,2″-imidazol]-6′-yl]-5-(difluoromethyl)benzonitrile]"
3,14,"CO[C@H]1CC[C@]2(CC1)Cc1ccc(-c3ccccc3)cc1[C@@]21N=C(C)C(N)=N1 [Example 90, (1r,1′R,4R)-4-Methoxy-5″-methyl-6′-phenyl-3′H-dispiro[cyclohexane-1,2′-indene-1′,2″-imidazol]-4″-amine]"
4,0.62,"COc1cc(C#N)cc(-c2ccc3c(c2)C2(N=C(C)C(N)=N2)[C@]2(CC[C@H](OC)CC2)C3)c1 (some centres unmarked) [Example 91, 3-[(1r,4r)-4″-Amino-4-methoxy-5″-methyl-3′H-dispiro[cyclohexane-1,2′-indene-1′,2″-imidazol]-6′-yl]-5-methoxybenzonitrile]"
5,3.5,"COCc1cc(C#N)cc(-c2ccc3c(c2)C2(N=C(C)C(N)=N2)[C@]2(CC[C@H](OC)CC2)C3)c1 (some centres unmarked) [Example 96, 3-[(1r,4r)-4″-Amino-4-methoxy-5″-methyl-3′H-dispiro[cyclohexane-1,2′-indene-1′,2″-imidazol]-6′-yl]-5-(methoxymethyl)benzonitrile]"
